# Experimental data as given in publication PMC6646883 (Biomacromolecules, 2019).
# Where no end group is shown, it is not given here.
# Assay type: physicochemical
# Conditions: methylene blue assay, dilute solution 0.1 mg/mL in 1x PBS pH 7.4 with Zn(OAc)2, Cys trigger, rt, absorbance at 750 nm, quadruplicate, t1/2=ln(2)/slope
row,Substance,H2S release half-life (pseudo-first-order) [min]
1,IAVEEEE [APA 1],31
2,IAVEEEE [APA 3],19
3,IAVEEEE [APA 5],13
